Measurements: the NIST ThermoML archive (doi:10.1021/je049610v)

Columns and labels:
[1] = refractive index (Na D-line) (dimensionless); xn = mol fraction of the nth substance listed; conditions: 101 kPa, Liquid
[2] = xn = mol fraction of the nth substance listed; conditions: 101 kPa, Liquid

OCCCl [1-chloro-2-hydroxyethane] + COc1ccccc1
Conditions | mass density, 298.15 K [kg/m3] | mass density, 303.15 K [kg/m3] | mass density, 308.15 K [kg/m3] | refractive index, 298.15 K | refractive index, 303.15 K | refractive index, 308.15 K | speed of sound, 298.15 K [m/s] | viscosity, 298.15 K [mPa·s] | viscosity, 303.15 K [mPa·s] | viscosity, 308.15 K [mPa·s]
[1], x2 = 0 | – | – | – | 1.4411 | 1.438 | 1.4326 | – | – | – | –
[1], x2 = 0.103 | – | – | – | 1.4495 | 1.4793 | 1.4468 | – | – | – | –
[1], x2 = 0.209 | – | – | – | 1.461 | 1.4586 | 1.4564 | – | – | – | –
[1], x2 = 0.313 | – | – | – | 1.4712 | 1.4684 | 1.4652 | – | – | – | –
[1], x2 = 0.395 | – | – | – | 1.4767 | 1.4745 | 1.4723 | – | – | – | –
[1], x2 = 0.49 | – | – | – | 1.4836 | 1.4807 | 1.4778 | – | – | – | –
[1], x2 = 0.59 | – | – | – | 1.4899 | 1.4879 | 1.4859 | – | – | – | –
[1], x2 = 0.69 | – | – | – | 1.4978 | 1.4951 | 1.4923 | – | – | – | –
[1], x2 = 0.797 | – | – | – | 1.5034 | 1.5011 | 1.4999 | – | – | – | –
[1], x2 = 0.898 | – | – | – | 1.5094 | 1.5067 | 1.5041 | – | – | – | –
[2], x2 = 0 | 1200.9 | 1192.5 | 1187.1 | – | – | – | 1358 | 3.104 | 2.669 | 2.347
[2], x2 = 0.103 | 1165.8 | 1158.6 | 1153.9 | – | – | – | 1365 | 2.6 | 2.334 | 2.068
[2], x2 = 0.209 | 1134.5 | 1129 | 1123.7 | – | – | – | 1372 | 2.13 | 1.943 | 1.755
[2], x2 = 0.313 | 1107.6 | 1102.5 | 1097.5 | – | – | – | 1378 | 1.778 | 1.631 | 1.485
[2], x2 = 0.395 | 1088.7 | 1083.9 | 1078.8 | – | – | – | 1382 | 1.583 | 1.452 | 1.32
[2], x2 = 0.49 | 1068.8 | 1064.3 | 1058.9 | – | – | – | 1388 | 1.418 | 1.289 | 1.16
[2], x2 = 0.59 | 1049.8 | 1044.8 | 1040.1 | – | – | – | 1392 | 1.269 | 1.158 | 1.046
[2], x2 = 0.69 | 1032.5 | 1027.5 | 1023 | – | – | – | 1397 | 1.155 | 1.064 | 0.972
[2], x2 = 0.797 | 1015.9 | 1010 | 1006.6 | – | – | – | 1402 | 1.087 | 1.004 | 0.921
[2], x2 = 0.898 | 1001.9 | 996.1 | 992.5 | – | – | – | 1406 | 1.007 | 0.936 | 0.865

COc1ccccc1 [anisole] + C[S+](C)[O-]
Conditions | mass density, 298.15 K [kg/m3] | mass density, 303.15 K [kg/m3] | mass density, 308.15 K [kg/m3] | refractive index, 298.15 K | refractive index, 303.15 K | refractive index, 308.15 K | speed of sound, 298.15 K [m/s] | viscosity, 298.15 K [mPa·s] | viscosity, 303.15 K [mPa·s] | viscosity, 308.15 K [mPa·s]
[1], x1 = 0.0938 | – | – | – | 1.4817 | 1.4772 | 1.4727 | – | – | – | –
[1], x1 = 0.2016 | – | – | – | 1.4878 | 1.4853 | 1.4828 | – | – | – | –
[1], x1 = 0.3025 | – | – | – | 1.4929 | 1.4901 | 1.4873 | – | – | – | –
[1], x1 = 0.3987 | – | – | – | 1.4962 | 1.4935 | 1.4906 | – | – | – | –
[1], x1 = 0.5074 | – | – | – | 1.4996 | 1.4974 | 1.4952 | – | – | – | –
[1], x1 = 0.594 | – | – | – | 1.5031 | 1.5006 | 1.498 | – | – | – | –
[1], x1 = 0.6956 | – | – | – | 1.5069 | 1.5043 | 1.5017 | – | – | – | –
[1], x1 = 0.7988 | – | – | – | 1.5105 | 1.5075 | 1.5046 | – | – | – | –
[1], x1 = 0.8933 | – | – | – | 1.5124 | 1.5096 | 1.5069 | – | – | – | –
[1], x1 = 1 | – | – | – | 1.5148 | 1.5124 | 1.5092 | – | – | – | –
[2], x1 = 0.0938 | 1081.5 | 1077 | 1072.3 | – | – | – | 1487 | 1.836 | 1.683 | 1.529
[2], x1 = 0.2016 | 1066.7 | 1062.1 | 1057.6 | – | – | – | 1477 | 1.691 | 1.549 | 1.407
[2], x1 = 0.3025 | 1054.4 | 1049.9 | 1045.3 | – | – | – | 1468 | 1.565 | 1.438 | 1.31
[2], x1 = 0.3987 | 1043.6 | 1039.2 | 1034.7 | – | – | – | 1462 | 1.466 | 1.347 | 1.228
[2], x1 = 0.5074 | 1032.5 | 1027.9 | 1023.6 | – | – | – | 1454 | 1.369 | 1.268 | 1.166
[2], x1 = 0.594 | 1024.1 | 1019.7 | 1015.1 | – | – | – | 1445 | 1.318 | 1.219 | 1.119
[2], x1 = 0.6956 | 1014.7 | 1010.3 | 1005.7 | – | – | – | 1437 | 1.249 | 1.152 | 1.054
[2], x1 = 0.7988 | 1005.5 | 1001.4 | 996.7 | – | – | – | 1428 | 1.157 | 1.073 | 0.989
[2], x1 = 0.8933 | 997.4 | 992.8 | 988.5 | – | – | – | 1421 | 1.077 | 1.004 | 0.931
[2], x1 = 1 | 988.9 | 984.1 | 979.4 | – | – | – | 1410 | 0.992 | 0.919 | 0.853

COc1ccccc1 [anisole] + C1COCCO1
Conditions | mass density, 298.15 K [kg/m3] | mass density, 303.15 K [kg/m3] | mass density, 308.15 K [kg/m3] | refractive index, 298.15 K | refractive index, 303.15 K | refractive index, 308.15 K | speed of sound, 298.15 K [m/s] | viscosity, 298.15 K [mPa·s] | viscosity, 303.15 K [mPa·s] | viscosity, 308.15 K [mPa·s]
[1], x1 = 0.0982 | – | – | – | 1.432 | 1.4295 | 1.427 | – | – | – | –
[1], x1 = 0.199 | – | – | – | 1.4434 | 1.4408 | 1.4383 | – | – | – | –
[1], x1 = 0.296 | – | – | – | 1.4538 | 1.4514 | 1.4496 | – | – | – | –
[1], x1 = 0.398 | – | – | – | 1.4647 | 1.4628 | 1.4603 | – | – | – | –
[1], x1 = 0.5046 | – | – | – | 1.475 | 1.472 | 1.47 | – | – | – | –
[1], x1 = 0.6044 | – | – | – | 1.484 | 1.4814 | 1.4789 | – | – | – | –
[1], x1 = 0.7057 | – | – | – | 1.4925 | 1.4899 | 1.4872 | – | – | – | –
[1], x1 = 0.8028 | – | – | – | 1.5009 | 1.4982 | 1.4956 | – | – | – | –
[1], x1 = 0.9005 | – | – | – | 1.5084 | 1.5054 | 1.5025 | – | – | – | –
[1], x1 = 1 | – | – | – | 1.5148 | 1.5124 | 1.5092 | – | – | – | –
[2], x1 = 0.0982 | 1023.3 | 1017.9 | 1012.9 | – | – | – | 1355 | 1.342 | 1.185 | 1.028
[2], x1 = 0.199 | 1018.4 | 1013.2 | 1008.2 | – | – | – | 1364 | 1.267 | 1.128 | 0.99
[2], x1 = 0.296 | 1014 | 1008.6 | 1003.9 | – | – | – | 1371 | 1.19 | 1.074 | 0.957
[2], x1 = 0.398 | 1009.7 | 1004.6 | 999.8 | – | – | – | 1378 | 1.12 | 1.028 | 0.936
[2], x1 = 0.5046 | 1005.5 | 1000.6 | 995.7 | – | – | – | 1385 | 1.072 | 0.994 | 0.917
[2], x1 = 0.6044 | 1001.8 | 996.9 | 992.1 | – | – | – | 1390 | 1.048 | 0.976 | 0.904
[2], x1 = 0.7057 | 998.3 | 993.5 | 988.6 | – | – | – | 1396 | 1.042 | 0.969 | 0.897
[2], x1 = 0.8028 | 995.1 | 990.5 | 985.4 | – | – | – | 1401 | 1.032 | 0.957 | 0.883
[2], x1 = 0.9005 | 991.9 | 987.4 | 982.4 | – | – | – | 1405 | 1.011 | 0.941 | 0.87
[2], x1 = 1 | 988.9 | 984.1 | 979.4 | – | – | – | 1410 | 0.992 | 0.919 | 0.853
